Test system: chicken muscle stem cells
Experiment: Muscle differentiation of chicken muscle stem cells in serum-free differentiation medium (MyHC immunocytochemistry, Fusion Index)
Assay type: cell-based
Conditions: additive concentrations of Table 1, second day, FIG. 2
Method: Muscle tissue was collected from edible bovine shank meat, and CD56-positive cells were isolated using a Magnetic-Activated Cell Sorting (MACS) system to obtain bovine muscle stem cells. Separately, muscle stem cells were isolated from edible chicken breast meat.
Then, on the second day, the expression of myosin heavy chain (MyHC) was measured by immunocytochemistry. The cells were fixed with 4% paraformaldehyde (Nacalai Tesque, Cat No. 09154-85) for 15 minutes. After washing twice with Dulbecco's phosphate-buffered saline (without Ca, Mg) (Nacalai Tesque, Cat No. 14249-24), the cells were immersed in Dulbecco's phosphate-buffered saline (without Ca, Mg) containing 0.1% Triton X-100 (Sigma, Cat No. T9284) for 10 minutes. Then, the solution was replaced with a blocking buffer and left to stand for 1 hour. As the blocking buffer, a solution was used in which Dulbecco's phosphate-buffered saline (without Ca, Mg) was supplemented with 5% horse serum and 0.1% Triton X-100. […] MyHC-positive cells were detected with a fluorescence microscope ECLIPSE Ti2-E (Nikon), and the Fusion Index (=Number of MyHC-positive nuclei/Total number of nuclei×100(%)) was calculated. […]
Then, on the second day, the expression of myosin heavy chain (MyHC) was measured by the same method as in (1-2).

For OCc1ccccc1O[C@@H]1O[C@H](CO)[C@@H](O)[C@H](O)[C@H]1O [Salicin], the “muscle differentiation (MyHC expression, Fusion Index)” value was “promoted the muscle differentiation of chicken cells”.

From patent US20260198526A1, “METHOD FOR PROMOTING DIFFERENTIATION OF ANIMAL CELL” (Ajinomoto Co., Inc., priority 2023, published 2026)
